The structures appear in SMILES notation.

The record followed here is patent US10336732B2, “1-heterocyclyl isochromanyl compounds and analogs for treating CNS disorders” (Sunovion Pharmaceuticals Inc., priority 2015, dated 2019).

This assay concerns mice. Nature of the assay: Neuropharmacological assay (SmartCube), behavioral signature of compound-treated mice. In kind it is in vivo. The note with it: i.p. 15 min before behavioral test, most efficacious dose(s) of 3 doses. A digest of the protocol: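 Read-out is an automated video-based behavioral signature, scored as per-class probabilities (e.g., anxiolytic, antidepressant) against reference compounds. Dosing was i.p. at three doses, 15 min pre-test, in NMP, polyethylene glycol and propylene glycol. Values shown are from the most efficacious dose(s).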
Turning to `Fc1cccc2c1CCO[C@H]2[C@H]1CCN1` [Compound I-95, (R)-2-((R)-5-fluoroisochroman-1-yl)azetidine], the “AD: ADHD (probability that behavioral signature matches class)” value (“AD: ADHD” below) is listed as “+ (LOQ ≤ + <5%)”, the “AG: analgesic (probability that behavioral signature matches class)” value (“AG: analgesic” below) is on record as “+++ (25% ≤ +++ <50%)”, the “AX: anxiolytic (probability that behavioral signature matches class)” value (“AX: anxiolytic” for short) is given as “++ (5% ≤ ++ <25%)” and the “CE: cognitive enhancer (probability that behavioral signature matches class)” value (shortened to “CE: cognitive enhancer”) is given as “++ (5% ≤ ++ <25%)”. Moreover, the “DP: anti-depressant (probability that behavioral signature matches class)” value (“DP: anti-depressant” below) is on record as “++ (5% ≤ ++ <25%)”, the “HA: hallucinogen (probability that behavioral signature matches class)” value (shortened to “HA: hallucinogen”) is given as “+ (LOQ ≤ + <5%)”, the “MS: mood stabilizer (probability that behavioral signature matches class)” value (from here on “MS: mood stabilizer”) is “+ (LOQ ≤ + <5%)” and the “PS: anti-psychotic (probability that behavioral signature matches class)” value (“PS: anti-psychotic” below) is listed as “++ (5% ≤ ++ <25%)”. The “SD: sedative hypnotic (probability that behavioral signature matches class)” value (from here on “SD: sedative hypnotic”) was “+ (LOQ ≤ + <5%)”, the “UN: uncharacterized CNS activity (probability that behavioral signature matches class)” value (from here on “UN: uncharacterized CNS activity”) is “+ (LOQ ≤ + <5%)” and the “XG: anxiogenic (probability that behavioral signature matches class)” value (“XG: anxiogenic” for short) is “+ (LOQ ≤ + <5%)”.
As for `Fc1ccc2c(c1)[C@@H]([C@H]1CCCN1)OCCC2` [Compound I-108, (R)-2-((S)-8-fluoro-1,3,4,5-tetrahydrobenzo[c]oxepin-1-yl)pyrrolidine], the “AD: ADHD” value is on record as “+ (LOQ ≤ + <5%)”, the “AG: analgesic” value is “++ (5% ≤ ++ <25%)”, the “AX: anxiolytic” value is listed as “++ (5% ≤ ++ <25%)” and the “CE: cognitive enhancer” value is recorded as “++ (5% ≤ ++ <25%)”. Moreover, the “DP: anti-depressant” value was “++ (5% ≤ ++ <25%)”, the “HA: hallucinogen” value is on record as “+ (LOQ ≤ + <5%)”, the “MS: mood stabilizer” value is given as “+ (LOQ ≤ + <5%)” and the “PS: anti-psychotic” value is reported as “+++ (25% ≤ +++ <50%)”. In addition, the “SD: sedative hypnotic” value is listed as “++ (5% ≤ ++ <25%)”, the “UN: uncharacterized CNS activity” value is “++ (5% ≤ ++ <25%)” and the “XG: anxiogenic” value was “+ (LOQ ≤ + <5%)”.
Regarding `c1ccc2c(c1)CCO[C@H]2[C@H]1CCN1` [Compound I-82, (R)-2-((R)-isochroman-1-yl)azetidine], the “AD: ADHD” value was “+ (LOQ ≤ + <5%)”, the “AG: analgesic” value is “++ (5% ≤ ++ <25%)”, the “AX: anxiolytic” value is “++ (5% ≤ ++ <25%)” and the “CE: cognitive enhancer” value is reported as “++ (5% ≤ ++ <25%)”. Also, the “DP: anti-depressant” value was “+++ (25% ≤ +++ <50%)”, the “HA: hallucinogen” value is on record as “+ (LOQ ≤ + <5%)”, the “MS: mood stabilizer” value is given as “++ (5% ≤ ++ <25%)” and the “PS: anti-psychotic” value was “++ (5% ≤ ++ <25%)”. In addition, the “SD: sedative hypnotic” value is given as “++ (5% ≤ ++ <25%)”, the “UN: uncharacterized CNS activity” value is “++ (5% ≤ ++ <25%)” and the “XG: anxiogenic” value is recorded as “+ (LOQ ≤ + <5%)”.
As to `Cc1cccc2c1[C@H]([C@@H]1CCCN1)OCC2` [Compound I-22, (S)-2-((R)-8-methylisochroman-1-yl)pyrrolidine], the “AD: ADHD” value is given as “+ (LOQ ≤ + <5%)”, the “AG: analgesic” value is “++ (5% ≤ ++ <25%)”, the “AX: anxiolytic” value is listed as “++ (5% ≤ ++ <25%)” and the “CE: cognitive enhancer” value is on record as “++ (5% ≤ ++ <25%)”. For the same molecule, the “DP: anti-depressant” value is “+++ (25% ≤ +++ <50%)”, the “HA: hallucinogen” value is “+ (LOQ ≤ + <5%)”, the “MS: mood stabilizer” value is recorded as “+ (LOQ ≤ + <5%)” and the “PS: anti-psychotic” value is “+++ (25% ≤ +++ <50%)”. Moreover, the “SD: sedative hypnotic” value was “+ (LOQ ≤ + <5%)”, the “UN: uncharacterized CNS activity” value is on record as “+ (LOQ ≤ + <5%)” and the “XG: anxiogenic” value is listed as “+ (LOQ ≤ + <5%)”.
As to `OC1CO[C@@H]([C@@H]2CCCN2)c2ccc(F)cc21` (stereo partly drawn) [Compound I-134, (1R)-6-fluoro-1-((S)-pyrrolidin-2-yl)isochroman-4-ol], the “AD: ADHD” value is reported as “+ (LOQ ≤ + <5%)”, the “AG: analgesic” value was “+ (LOQ ≤ + <5%)”, the “AX: anxiolytic” value is “++ (5% ≤ ++ <25%)” and the “CE: cognitive enhancer” value was “+ (LOQ ≤ + <5%)”. Also, the “DP: anti-depressant” value is given as “+ (LOQ ≤ + <5%)”, the “HA: hallucinogen” value was “+ (LOQ ≤ + <5%)”, the “MS: mood stabilizer” value is reported as “+ (LOQ ≤ + <5%)” and the “PS: anti-psychotic” value is “+ (LOQ ≤ + <5%)”. Besides, the “SD: sedative hypnotic” value is “+ (LOQ ≤ + <5%)”, the “UN: uncharacterized CNS activity” value was “+ (LOQ ≤ + <5%)” and the “XG: anxiogenic” value is given as “+ (LOQ ≤ + <5%)”.
Turning to `N#Cc1ccc2c(c1)CCO[C@@H]2[C@@H]1CCCN1` [Compound I-43, (S)-1-((S)-pyrrolidin-2-yl)isochroman-6-carbonitrile], the “AD: ADHD” value is recorded as “+ (LOQ ≤ + <5%)”, the “AG: analgesic” value is “++ (5% ≤ ++ <25%)”, the “AX: anxiolytic” value was “+++ (25% ≤ +++ <50%)” and the “CE: cognitive enhancer” value was “++ (5% ≤ ++ <25%)”. The “DP: anti-depressant” value is “++ (5% ≤ ++ <25%)”, the “HA: hallucinogen” value is “+ (LOQ ≤ + <5%)”, the “MS: mood stabilizer” value is “+ (LOQ ≤ + <5%)” and the “PS: anti-psychotic” value was “++ (5% ≤ ++ <25%)”. Moreover, the “SD: sedative hypnotic” value is listed as “+ (LOQ ≤ + <5%)”, the “UN: uncharacterized CNS activity” value is given as “+ (LOQ ≤ + <5%)” and the “XG: anxiogenic” value is “+ (LOQ ≤ + <5%)”.
Consider `Cc1ccc2c(c1)[C@@H]([C@@H]1CCCN1)OCC2` [Compound I-26, (S)-2-((S)-7-methylisochroman-1-yl)pyrrolidine], for which the “AD: ADHD” value was “+ (LOQ ≤ + <5%)”, the “AG: analgesic” value is “+ (LOQ ≤ + <5%)”, the “AX: anxiolytic” value is “++ (5% ≤ ++ <25%)” and the “CE: cognitive enhancer” value was “+ (LOQ ≤ + <5%)”. For the same molecule, the “DP: anti-depressant” value is on record as “+ (LOQ ≤ + <5%)”, the “HA: hallucinogen” value is given as “+ (LOQ ≤ + <5%)”, the “MS: mood stabilizer” value was “+ (LOQ ≤ + <5%)” and the “PS: anti-psychotic” value was “+ (LOQ ≤ + <5%)”. The “SD: sedative hypnotic” value is recorded as “+ (LOQ ≤ + <5%)”, the “UN: uncharacterized CNS activity” value is reported as “+ (LOQ ≤ + <5%)” and the “XG: anxiogenic” value is “+ (LOQ ≤ + <5%)”.
